From PMC10447463, “Data-mining unveils structure–property–activity correlation of viral infectivity enhancing self-assembling peptides” (Nature Communications, 2023)
Read-outs that look alike come from different tables or passages of the source.

What was measured:
TZM-bl cells = type: cell-based; details: CellTiter-Glo, mean of n = 3 replicates; for viability 0.26 µM: peptide 0.26 µM; for viability 1.3 µM: peptide 1.3 µM; for viability 6.5 µM: peptide 6.5 µM
Procedure, shortened: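 Viability of TZM-bl cells (10,000 seeded) after 3 days with serially diluted peptides, measured by CellTiter-Glo luminescence. Values normalized to 100% metabolic activity; triplicates.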

[1] = Conversion rate (CR) assay with fluorescamine; type: physicochemical
Procedure, shortened: (§1)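 Fluorescence at 470 nm (365 nm excitation) was read 20 min after adding fluorescamine to DMSO-dissolved filtrate and unfiltered PNF, then CR computed as 100 − 100 × filtrate/original. Secondary structure came from ATR FT-IR spectra of lyophilized PNF powder.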

[2] = β-sheet content by ATR-FT-IR; type: physicochemical
Procedure, shortened: as §1

[3] = Turbidity, derived count rate of scattered light; type: physicochemical; details: log10 of derived count rate of scattered light, Figure 7B
[4] = previously reported peptides only; ref sieste 2021 or Schilling2019; cited from earlier work
Description: Supplement 41467_2023_40663_MOESM7_ESM.zip/FigS17.csv, table | column: Conversion Rate / % ( from sieste 2021 or Schilling2019)

| Substance | viability 0.26 µM (TZM-bl cells) | viability 1.3 µM (TZM-bl cells) | viability 6.5 µM (TZM-bl cells) | Log10 Count Rate [3] | also measured |
| --- | --- | --- | --- | --- | --- |
| CKIKIQIII [AR0 / F19] | 109.6 | 100.4 | 87.63 | – | – |
| CKIKIQIRGD [psis21] | 104.5 | 107.1 | 97.19 | – | – |
| EIEIQINM [TM95 / (TM75)] | – | – | – | – | Conversion Rate / % [1]: 79.85%; FTIR ß-sheet content/ % [2]: 53.87% |
| EIEIQINMWQ [VH8] | – | – | – | – | Conversion Rate / % [1]: 89.92%; FTIR ß-sheet content/ % [2]: 53.91% |
| GYVIIK [reference compound] | – | – | – | 1.476 | – |
| HHHHKAKAKAKAYYYY [TM10] | 107.4 | 112.1 | 104.4 | – | – |
| HHHHKIKIQINMYYYY [TM16] | 118.7 | 114.9 | 85.37 | – | Conversion Rate / % ([1]; fluorescamine assay): 98.42%; FTIR ß-sheet content/ % ([2]; ATR-FT-IR): 46.73% |
| HIHIQIC [CN12] | 99.21 | 105 | 101.2 | – | Conversion Rate / % ([1]; fluorescamine assay): 82.72%; FTIR ß-sheet content/ % ([2]; ATR-FT-IR): 48.25% |
| HLHLPLL [CN14] | – | – | – | – | Conversion Rate / % ([1]; fluorescamine assay): 37.51%; FTIR ß-sheet content/ % ([2]; ATR-FT-IR): 49.19% |
| IFQINS [reference compound] | – | – | – | 1.56 | – |
| IIIK [reference compound] | – | – | – | 1.413 | – |
| IIIQGK [reference compound] | – | – | – | 0.9808 | – |
| IKFLSVN [reference compound] | – | – | – | 2.136 | – |
| KFKFQFFF [TG12] | 108.2 | 109.4 | 97 | – | Conversion Rate / % ( from sieste 2021 or Schilling2019) [4]: 99%; Conversion Rate / % [1]: 97.92%; Conversion Rate / % ([1]; fluorescamine assay): 97.92%; FTIR ß-sheet content/ % [2]: 49.11%; FTIR ß-sheet content/ % ([2]; ATR-FT-IR): 49.11% |
| KIKIKIKIWW [TM21] | 95.22 | 94.23 | 80.72 | – | – |
| KIKIKIKIWWWW [TM12] | 125.9 | 106.4 | 86.48 | – | – |

| Substance | viability 0.26 µM (TZM-bl cells) | viability 1.3 µM (TZM-bl cells) | viability 6.5 µM (TZM-bl cells) | Log10 Count Rate [3] | also measured |
| --- | --- | --- | --- | --- | --- |
| KIKIQIII [TG7] | – | – | – | – | Conversion Rate / % ( from sieste 2021 or Schilling2019) [4]: 87% |
| KLVFFAK [reference compound] | – | – | – | 1.159 | – |
| KYFIL [reference compound] | – | – | – | 4.277 | – |
| LASLIYR [reference compound] | – | – | – | 2.0205 | – |
| MKVIFLKDVKG [reference compound] | – | – | – | 2.137 | – |
| NKGAII [reference compound] | – | – | – | 1.831 | – |
| RATVYV [reference compound] | – | – | – | 1.621 | – |
| RGDKIKIQINM [MG8a / CN17] | 107.7 | 105.2 | 86.63 | – | Conversion Rate / % ( from sieste 2021 or Schilling2019) [4]: 48%; Conversion Rate / % [1]: 73.83%; Conversion Rate / % ([1]; fluorescamine assay): 73.83%; FTIR ß-sheet content/ % [2]: 45.52%; FTIR ß-sheet content/ % ([2]; ATR-FT-IR): 45.52% |
| RGDKIKIQINMC [psis29] | 103.4 | 101.5 | 82.89 | – | – |
| RGDKIKIQINMWQ [MG9a] | 104.4 | 105.9 | 88.59 | – | – |
| RGDSGGGGGGKIKIQIC [TM114 / RC17] | 105.8 | 97.96 | 78.89 | – | – |
| RGECKFKFQF [CN16] | 105.4 | 106.3 | 102.8 | – | Conversion Rate / % ([1]; fluorescamine assay): 98.71%; FTIR ß-sheet content/ % ([2]; ATR-FT-IR): 46.18% |
| RGEKIKIQINM [CN18] | 93.96 | 87.66 | 79.74 | – | Conversion Rate / % ([1]; fluorescamine assay): 80.28%; FTIR ß-sheet content/ % ([2]; ATR-FT-IR): 43.05% |
| RLRLTLC [CN13] | 120.7 | 120.4 | 108.4 | – | Conversion Rate / % ([1]; fluorescamine assay): 87.44%; FTIR ß-sheet content/ % ([2]; ATR-FT-IR): 20.69% |
| RQGNINIVA [reference compound] | – | – | – | 1.551 | – |
| VHDCVNITIK [reference compound] | – | – | – | 4.098 | – |
